Results reported in ChEMBL document CHEMBL5532638, “Current development of 1,2,3-triazole derived potential antimalarial scaffolds: Structure- activity relationship (SAR) and bioactive compounds” (Eur J Med Chem, 2023).

What was measured:
Plasmodium falciparum [1] = test: Antiplasmodial activity against CQ-sensitive Plasmodium falciparum 3D7 assessed as parasite growth inhibition; format: functional, organism-based
Plasmodium falciparum [2] = test: Antiplasmodial activity against Plasmodium falciparum 3D7 infected in human red blood cells assessed as parasite growth inhibition incubated for 72 hrs by SYBR Green I staining based analysis; format: functional, organism-based, Red blood cell; details: 3D7, Erythrocyte
Plasmodium falciparum [3] = test: Antiplasmodial activity against Plasmodium falciparum infected in O+ RBCs assessed as parasite growth inhibition incubated for 36 to 40 hrs by JSB staining based analysis; format: functional, organism-based, RBC
Plasmodium falciparum [4] = test: Antimalarial activity against Plasmodium falciparum 3D7 assessed as parasite growth inhibition incubated for 42 hrs by [3H]-hypoxanthine incorporation assay; format: functional, organism-based
[5] = Cytotoxicity against human PC-3 cells incubated for 72 hrs by MTT assay; format: toxicity, cell-based
Plasmodium falciparum [6] = test: Antimalarial activity against CQ-resistant Plasmodium falciparum RKL-9 field isolate at asexual stage assessed as parasite growth inhibition incubated for 22 to 36 hrs by SMI assay; format: functional, organism-based
Plasmodium falciparum [7] = test: Antiplasmodial activity against CQ-resistant Plasmodium falciparum K1 infected in human O+ RBCs assessed as parasite growth inhibition incubated for 72 hrs by ELISA; format: functional, organism-based; details: K1, 72 h
[8] = Plasmodium falciparum, Erythrocyte, read-out: IC50

## O=C(Cn1cc(-c2ccccc2)nn1)c1ccccc1
Plasmodium falciparum [1]
  IC50: 1290 nM

## O=C(N/N=C/c1cn(-c2ccccc2)nn1)c1ccncc1
Plasmodium falciparum [2]
  IC50: 2800 nM

## O=C(N/N=C/c1cn(-c2ccc(Cl)cc2)nn1)c1ccncc1
Plasmodium falciparum [2]
  IC50: 2800 nM

## COc1ccc(-n2cc(/C=N/NC(=O)c3ccncc3)nn2)cc1
Plasmodium falciparum [2]
  IC50: 2800 nM

## COc1ccc(-n2cc(COC(=O)c3ccccc3)nn2)cc1
Plasmodium falciparum [2]
  IC50: 2800 nM

## CCOCc1cn(-c2ccc(Cl)cc2)nn1
Plasmodium falciparum [2]
  IC50: 2800 nM

## O=C(OCc1cnn(-c2ccccc2)n1)c1ccccc1
Plasmodium falciparum [2]
  IC50: 2800 nM

## O=C(OCc1cn(-c2ccccc2)nn1)c1ccccc1
Plasmodium falciparum [2]
  IC50: 2800 nM

## CCCOCc1cn(-c2cc(Cl)ccc2Cl)nn1
Plasmodium falciparum [2]
  IC50: 2800 nM

## CCCOCc1cn(-c2cc(Cl)cc(Cl)c2)nn1
Plasmodium falciparum [2]
  IC50: 2800 nM

## CCOCc1cn(-c2cc(Cl)cc(Cl)c2)nn1
Plasmodium falciparum [2]
  IC50: 2800 nM

## O=C(Cn1cc(CSc2ccc(Br)cc2)nn1)OCc1ccc(Cl)cc1
Plasmodium falciparum [3]; [8]
  IC50: 203 nM

## O=C(Cn1cc(CSc2ccc(Cl)cc2)nn1)OCc1ccc(Cl)cc1
Plasmodium falciparum [3]; [8]
  IC50: 208 nM

## COc1ccc2cc3[n+](cc2c1OCc1cn(-c2ccc(S(=O)(=O)N4CCOCC4)cc2)nn1)CCc1cc2c(cc1-3)OCO2.[Cl-]
Plasmodium falciparum [4]
  IC50: 0.1 µg/mL
[5]
  CC50 at 72 h: > 200 µg/mL

## COc1ccc(NS(=O)(=O)c2ccc(-n3cc(COc4c(OC)ccc5cc6[n+](cc45)CCc4cc5c(cc4-6)OCO5)nn3)cc2)cc1.[Cl-]
Plasmodium falciparum [4]
  IC50: 0.5 µg/mL
[5]
  CC50 at 72 h: > 200 µg/mL

## COc1ccc2cc3[n+](cc2c1OCc1cn(-c2ccc(S(=O)(=O)Nc4ccc(F)cc4)cc2)nn1)CCc1cc2c(cc1-3)OCO2.[Cl-]
Plasmodium falciparum [4]
  IC50: 0.1 µg/mL
[5]
  CC50 at 72 h: > 200 µg/mL

## COc1ccc2cc3[n+](cc2c1OCc1cn(-c2ccc(S(=O)(=O)Nc4ccc(Cl)cc4)cc2)nn1)CCc1cc2c(cc1-3)OCO2
[5]
  CC50 at 72 h: > 200 µg/mL

## COc1ccc2cc3[n+](cc2c1OCc1cn(-c2ccc(S(=O)(=O)N4CCN(C)CC4)cc2)nn1)CCc1cc2c(cc1-3)OCO2.[Cl-]
Plasmodium falciparum [4]
  IC50: 0.1 µg/mL
[5]
  CC50 at 72 h: > 200 µg/mL

## COc1ccc2cc3[n+](cc2c1OCc1cn(-c2ccc(S(=O)(=O)N4CCCCC4)cc2)nn1)CCc1cc2c(cc1-3)OCO2.[Cl-]
Plasmodium falciparum [4]
  IC50: 0.1 µg/mL
[5]
  CC50 at 72 h: > 200 µg/mL

## COc1ccc2cc3[n+](cc2c1OCc1cn(-c2ccc(S(N)(=O)=O)cc2)nn1)CCc1cc2c(cc1-3)OCO2.[Cl-]
Plasmodium falciparum [4]
  IC50: 0.1 µg/mL
[5]
  CC50 at 72 h: > 200 µg/mL

## COc1ccc2cc3[n+](cc2c1OCc1cn(-c2ccc(S(=O)(=O)Nc4ccccc4)cc2)nn1)CCc1cc2c(cc1-3)OCO2.[Cl-]
Plasmodium falciparum [4]
  IC50: 0.2 µg/mL
[5]
  CC50 at 72 h: > 200 µg/mL

## COc1ccc2cc3[n+](cc2c1OCc1cn(-c2ccc(S(=O)(=O)Nc4ccc(Br)cc4)cc2)nn1)CCc1cc2c(cc1-3)OCO2.[Cl-]
Plasmodium falciparum [4]
  IC50: 0.1 µg/mL
[5]
  CC50 at 72 h: > 200 µg/mL

## O=C(Cn1cc(COc2ccc(Cl)cc2)nn1)NCCNc1ccnc2cc(Cl)ccc12
Plasmodium falciparum [6]
  IC50: < 100 nM

## O=C(Cn1cc(COc2ccccc2)nn1)NCCCNc1ccnc2cc(Cl)ccc12
Plasmodium falciparum [6]
  IC50: 75 nM

## O=C(Cn1cc(CSc2ccc(Br)cc2)nn1)OCc1ccc([N+](=O)[O-])cc1
Plasmodium falciparum [3]; [8]
  IC50: 183 nM

## Clc1ccc(N/N=C/c2cnn(-c3ccccc3)n2)cc1
Plasmodium falciparum [2]
  IC50: 2800 nM

## Cc1ccccc1COc1ccc(-n2cc(COc3cc(=O)oc4ccccc34)nn2)cc1
Plasmodium falciparum [3]; rbc
  IC50: 0.53 microg/cm3

## O=c1ccc2ccc(OCc3cn(-c4ccc(OCc5ccc(F)cc5)cc4)nn3)cc2o1
Plasmodium falciparum [3]; rbc
  IC50: 0.49 microg/cm3

## COc1ccc2cc3[n+](cc2c1OCc1cn(-c2ccc(S(=O)(=O)Nc4ccc([N+](=O)[O-])cc4)cc2)nn1)CCc1cc2c(cc1-3)OCO2.Cl
Plasmodium falciparum [4]
  IC50: 0.1 µg/mL
[5]
  CC50 at 72 h: > 200 µg/mL

## COc1ccc2cc3[n+](cc2c1OCc1cn(-c2ccc(S(=O)(=O)N4CCN(c5ccccn5)CC4)cc2)nn1)CCc1cc2c(cc1-3)OCO2.[Cl-]
Plasmodium falciparum [4]
  IC50: 0.1 µg/mL
[5]
  CC50 at 72 h: > 200 µg/mL

## Clc1ccc(N/N=C/c2cn(-c3ccc(Cl)cc3)nn2)cc1
Plasmodium falciparum [2]
  IC50: 2800 nM

## O=C1C(Oc2ccccc2)C(c2ccc([N+](=O)[O-])cc2)N1c1ccc(OCc2cn(Cc3ccccc3)nn2)cc1 (stereo unspecified)
Plasmodium falciparum [7]
  IC50: 850 nM

## O=c1ccc2ccc(OCc3cn(-c4ccc(OCc5ccc(Br)cc5)cc4)nn3)cc2o1
Plasmodium falciparum [3]; rbc
  IC50: 0.54 microg/cm3

## C=CCn1cc(COc2ccc(N3C(=O)C(Oc4ccccc4)C3c3cccc(OC)c3)cc2)nn1 (stereo unspecified)
Plasmodium falciparum [7]
  IC50: 850 nM

## Clc1cc(Cl)cc(-n2cc(/C=N/Nc3ccc(Br)cc3)nn2)c1
Plasmodium falciparum [2]
  IC50: 2800 nM

## CCOC(=O)Cn1cc(COc2ccc(C3C(Oc4ccccc4)C(=O)N3c3ccc(OCc4cn(CC(=O)OCC)nn4)cc3)cc2)nn1 (stereo unspecified)
Plasmodium falciparum [7]
  IC50: 850 nM

## O=C1C(Oc2ccccc2)C(c2ccccc2)N1c1ccc(OCc2cn(Cc3ccccc3)nn2)cc1 (stereo unspecified)
Plasmodium falciparum [7]
  IC50: 850 nM

## Cc1ccc(COc2ccc(-n3cc(COc4ccc5ccc(=O)oc5c4)nn3)cc2)cc1
Plasmodium falciparum [3]; rbc
  IC50: 0.38 microg/cm3

## C=CCn1cc(COc2ccc(N3C(=O)C(Oc4ccccc4)C3c3ccccc3)cc2)nn1 (stereo unspecified)
Plasmodium falciparum [7]
  IC50: 850 nM

## Cc1ccc(COC(=O)Cn2cc(CSc3ccc(C)cc3)nn2)cc1
Plasmodium falciparum [3]; [8]
  IC50: 204 nM

## O=C(Cn1cc(CSc2ccc3ccccc3c2)nn1)OCc1ccc([N+](=O)[O-])cc1
Plasmodium falciparum [3]; [8]
  IC50: 207 nM
